Source: patent US20120065165A1, “COMPOSITIONS AND METHODS OF TREATING ENDOTHELIAL DISORDERS” (ARGINETIX, INC, priority 2008, published 2012)
Read-outs that look alike come from different tables or passages of the source.

How the values were obtained:
[1] = test system: old rat aortic segments; experiment: NO production in aortic rings (slope of DAF fluorescence); type: cell-based; details: old/aged rat aorta
Text: ABH improves endothelial function by inhibiting arginase and consequently increasing NO production (by increasing L-arginine availability to eNOS) and decreasing levels of ROS (by preventing eNOS uncoupling). […] Aortic rings were dissected and pinned down, endothelial side up, on a silastic coated culture dish, and then exposed to either the NO-sensitive dye DAF, or the O2-sensitive dye DHE. Since the interaction of NO or ROS with its specific dye is cumulative, the rate of production of each species is proportional to the slope of the fluorescence emitted from the dye as measured using epifluorescence microscopy. […] SNP endothelial-independent NO donor was included as a control (Santhanam et al 2007).

[2] = test system: arginase; details: internal anal sphincter; cited from earlier work
[3] = test system: lambs with chemically induced PAH; details: cited from earlier work
[4] = test system: arginase; details: cited from earlier work
[5] = in vivo; cited from earlier work
[6] = test system: rat aortic tissues; experiment: cGMP levels in aortic rings of old rats incubated with sildenafil and ABH (cGMP EIA); type: cell-based; details: ABH 0 nM
Experimental: The source of tissue was old (22 to 24 months) male Fischer 344 rats purchased from National Institute for Aging (NIA). The rats were anesthetized in an isoflurane chamber and euthanized. The entire length of the aorta (thoracic, arch, abdominal) were dissected out and cleaned free of connective tissue. These aorta were then sectioned into ˜3 mm long rings. Samples were collected from 2 rats and pooled. […] Rings were incubated in varying concentrations of sildenafil (0-2000 nM) and ABH (0-500 nM) prepared in 200 μL Krebs buffer for 10 min at 37° C. The rings were then snap frozen in liquid nitrogen following treatment. The next day, samples were homogenized in 200 μL 6% TCA buffer (prepared by adding TCA to DI water) at 4° C. for extraction of cyclic nucleotides. The samples were then centrifuged at 12,000 rpm for 5 min at 4° C. Protein pellets were re-dissolved in PBS to determine protein concentration, and supernatant was reserved for cGMP detection. […] ABH (MW 211.45): A stock solution of ABH at a concentration of 100 mM was prepared by dissolving 21.1 mg of ABH into 1 ml Krebs solution. This was used to prepare 5 ml of a 1 mM stock. 200 μL of the 1 mM solution were dispensed into column 12 of a 96-well plate. Six 2× dilutions were prepared in the plate. 200 μL Krebs were dispensed in column 5 to get a concentration range of 0-1000 nM (2× of final concentration). Sildenafil (MW 474.5): A stock solution of sildenafil at a concentartion of 100 mM was prepared by dissolving 47.4 mg of sildenafil into 1 ml Krebs solution; 5 ml of 2 mM stock was prepared from this. Row A received 200 μL of Krebs buffer (0 mM sildenafil), mixed well, and adjusted to a final volume of 200 μL. Next, 200 μL of the 2 mM sildenafil stock was dispensed into row H of the 96 well plate already containing the ABH dilutions ([…]). Six 2× dilutions were prepared from this to get the final concentration ranges for the two drugs. cGMP levels were determined with a cGMP kit (Amersham cGMP Enzyme immunoassay Biotrak (EIA) System Cat #RPN226) and run in accordance with the manufacture's recommendations. The assay uses a competitive fluorescent immunoassay format to measure levels of cGMP. It combines the use of a peroxidase-labelled cGMP conjugate, a specific antiserum which can be immobilized on to pre-coated microplates, and a one-pot stabilized substrate solution. […] In the absence of cGMP most of the HRP conjugate is bound to the antibody and yields a high fluorescence. Increasing concentrations of cGMP competitively decreases the binding of the HRP conjugate, decreasing the measured fluorescence (HRP activity). […] The plate was then incubated for 2 hrs at room temperature with shaking after which it is washed and the fluorescent substrate is added. The plate was incubated for an additional 10 min and then read on a Molecular Devices Gemini EM plate reader set at Ex 530 nm, Em 590 nm (endpoint mode). The signal is reported to be stable for up to 24 hrs, but was generally read within 2 hrs. […] These values were calculated based on the resultant ratio of fluorescence reading of sample divided by fluorescense reading with no cGMP (pmols/mg). For each concentration combination of sildenafil and ABH administered to cells, absorbance (OD at 450 nm) was measured. From these values, the absorbance adjusted for non-specific binding (NSB) for each sample (OD-NSB(B)) was determined from the absorbance (B) divided by the absorbance without cGMP (Bo). Using this value and the standard curve for cGMP, the log (fmol) is found and, after adjusting for the quantity of protein, the pmols of cGMP/mg protein is calculated.

[7] = test system: patients with PAH; details: oral administration; cited from earlier work
[8] = test system: patients with PAH; details: three times daily; cited from earlier work
[9] = test system: hypoxia-induced pulmonary hypertension; details: cited from earlier work
[10] = test system: PDE1; details: pulmonary vascular tissue; cited from earlier work

In the case of `N[C@@H](CSCCB(O)O)C(=O)O` [BEC, S-(2-Boronoethyl)-L-cysteine], the “NO production (slope of the DAF fluorescence)” value [1] is reported as “augments NO production”.
In the case of `N=C(NO)NCCC[C@H](N)C(=O)O` [L-HO-Arg, Nω-hydroxy-L-arginine], the “NANC relaxation suppressed by excess arginase” value [2] is listed as “restored”.
In the case of `CCCOc1ccccc1-c1nc2nn[nH]c2c(=O)[nH]1` [Zaprinast], the “pulmonary vasodilation induced by inhaled NO” value ([3]; lambs with chemically induced PAH) is given as “potentiates and markedly prolongs”.
In the case of `N=C(NO)NCC[C@H](N)C(=O)O` [nor-NOHA, N^ω-hydroxy-nor-L-arginine], the “in vivo inhibition of serum arginase” value [4] is given as “inhibition of serum arginase” and the bioavailability [5] is given as “poor bioavailability”.
For `CCCc1nn(C)c2c(=O)[nH]c(-c3cc(S(=O)(=O)N4CCN(C)CC4)ccc3OCC)nc12` [sildenafil], the “Theoretical response T(x,y) based on an additive effect” value (from here on “Theoretical response T(x,y) based”) ([6]; sildenafil 31 nM) was 0.27 pmol/mg, the “pmols of cGMP/mg protein produced P(x,y)” value ([6]; sildenafil 31 nM) was 0.27 pmols/mg and the “Theoretical response T(x,y) based” value ([6]; sildenafil 125 nM) was 2.56 pmol/mg. The “pmols of cGMP/mg protein produced P(x,y)” value ([6]; sildenafil 125 nM) was 2.56 pmols/mg, the “Theoretical response T(x,y) based” value ([6]; sildenafil 500 nM) was 0.88 pmol/mg and the “pmols of cGMP/mg protein produced P(x,y)” value ([6]; sildenafil 500 nM) was 0.88 pmols/mg. The “Theoretical response T(x,y) based” value ([6]; sildenafil 2000 nM) was 0.80 pmol/mg, the “pmols of cGMP/mg protein produced P(x,y)” value ([6]; sildenafil 2000 nM) was 0.80 pmols/mg and the pulmonary vasodilation [7] was “selective pulmonary vasodilation”. The WHO functional class [8] was “improved”, the “exercise capacity (6-minute walk test)” value [8] was “improved” and the pulmonary arterial pressure [8] was “decreased”. The pulmonary vascular resistance [8] was “decreased”, the hypoxia-induced pulmonary hypertension ([9]; mice lacking NOS3 (eNOS)) was “little effect” and the hypoxia-induced pulmonary hypertension ([9]; mouse, in vivo) was “substantially ablated”. For the same compound, the “pulmonary vasodilator response to inhaled NO” value ([3]; aerosolized form, lambs with PAH) was “augmented”.
In the case of `CCOC(=O)C1=C[C@]2(CC)CCCN3CCc4c(n1c1ccccc41)[C@@H]32` [vinpocetine], the NO-stimulated dilation [10] is listed as “enhances” and the “basal cGMP or cAMP” value [10] is listed as “little effect”.
